US4347319A, “Microbiological epoxidation process” (priority 1980, dated 1982)

Tests used:
[1] = test system: cell fractions of Methylosinus trichosporium (OB3b, NRRL B-11,196); type: biochemical; conditions: S(80); propylene to propylene oxide, methane to methanol; 30° C.
Experimental: Cells were washed twice with 25 mM potassium phosphate buffer, pH 7.0 containing 5 mM MgCl2. Cells were suspended in the same buffer. The cell suspensions at 4° C. were disintegrated by a single passage through a French Pressure cell (15,000 lb./in.^2) and centrifuged at 5000×g. for 15 min. to remove unbroken bacteria. The supernatant solution (crude extract) was then centrifuged at 40,000×g. for 30 min., yielding particulate P(40) and soluble S(40) fractions. The S(40) fraction was subsequently centrifuged at 80,000×g. for 60 min., yielding particulate P(80) and soluble S(80) fractions. The particulate fractions [P(40) and P(80)] were suspended in 25 mM potassium phosphate buffer, pH 7.0, containing 5 mM MgCl2 and homogenized at 4° C.
The oxidation of methane and propylene by particulate [(P)40 and (P)80] fractions and soluble [S(80)] fraction was measured at 30° C. by estimating the production of methanol and propylene oxide, respectively. The reaction mixtures contained in […]: 150 mM potassium phosphate buffer, pH 7.0 containing 5 mM MgCl2 b, 0.6 ml; 10μ moles NADH, and cellular fraction.
Reaction mixtures were contained in 10 ml vials at 4° C. Vials were sealed with rubber caps. The gaseous phase in the vials was removed using vacuum and then was replaced with a gas mixture of methane or propylene and oxygen at a 1:1, v/v ratio. Oxidation of other gaseous n-alkanes and n-alkanes was examined as described above. For liquid substrates, 10 μl of substrate was used directly.
The products of epoxidation of n-alkenes and hydroxylation of n-alkanes were assayed by flame ionization gas chromatography using a stainless steel column (12'×1/8") packed with 10% Carbowax 20 M on 80/100 Chromosorb W and Porapak Q column. The column temperature was maintained isothermally at 120° C. The carrier gas flow rate was 30 ml/min. of helium. The various products were identified by retention time comparisons and co-chromatography with authentic standards.
Specific activities were expressed as μ moles of products formed per hour per mg. protein. Concentrations of protein in various fractions were determined by the method of Lowry et al., J. Biol. Chem., 193: 265-275 (1951).

[2] = test system: Methylomonas rubrum (CRL M6P) NRRL B-11,210; assay: Oxidation by washed cell suspensions of methane-grown cells; type: cell-based; conditions: methane-grown washed cells, 30° C.; methane to methanol, alkene to 1,2-epoxide
Procedure, shortened: (§1)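 Washed resting cells from methane-grown cultures oxidise the test substrate, supplied as a 1:1 mix with O2 or as 10 μl liquid, at 30 °C in pH 7.0 phosphate buffer; product formation is followed by GC.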

[3] = test system: Methylomonas methanica (CRL 21 PM7) NRRL B-11,206; assay: as above; type: cell-based
Procedure, shortened: as §1

[4] = test system: Methylomonas rosaceus (CRL M7P) NRRL B-11,213; assay: as above; type: cell-based; conditions: 30° C., methane to methanol, alkene to 1,2-epoxide
Procedure, shortened: as §1

[5] = test system: Methylosinus trichosporium OB3b (NRRL B-11,196); assay: Oxidation by cell suspensions of methane-grown cells; type: cell-based; conditions: growth substrate Methane; n-alkane to secondary alcohol
Experimental: (§2) The pH of the nutrient medium was adjusted to 7.0 by the addition of acid or base and 50 ml samples of the nutrient medium were charged into a plurality of 300 ml shaker flasks. The shaker flasks were inoculated with an inoculating loop of cells from an agar plate containing homogeneous colonies of the microorganisms on the plate (the purity of the isolates was confirmed by microscopic examination. The isolates had been maintained on agar plates under an atmosphere of methane and air having a 1:1 v/v gas ratio which had been transferred evey two weeks. The gaseous phase of the inoculated flasks was then replaced with a gas mixture comprised of methane and air having a ratio of 1:1 on a v/v basis. The inoculated flasks were sealed air tight and were incubated on a rotary shaker of orbital radius 2.5 cm at 250 rpm and at 30° C. for two days until turbidity in the medium had developed.
(§3) The cells were harvested by centrifugation at 10,000×g. at 4° C. for 30 minutes. The cell pellet was washed twice with a 0.15 M phosphate buffer at a pH of 7.0 (containing 0.002 M MgCl2). The washed cells were then suspended in a 0.15 M phosphate buffer at pH 7.0.
(§4) A 0.5 ml sample of each washed cell suspension (2 mg cells) was put into 10 ml vials at 4° C. which were sealed with a rubber cap. The gaseous phase of the vials was removed with vacuum and then was replaced with a gas mixture of the oxidative substrate (e.g., methane) and oxygen at a 1:1 v/v ratio. The vials were then incubated at 30 ° C. on a rotary shaker at 300 rpm. Samples of product (3 μl) were withdrawn periodically with a microsyringe and the products were analyzed by gas chromatography (ionization flame detector column).
(§5) The conditions for preparing the cell suspensions or the cell-free particulate fractions from methane-grown methylotroph microorganisms is the same as described above.

[6] = test system: Methylococcus capsulatus (Texas, ATCC 19,069); assay: as above; type: cell-based; conditions: growth substrate Methane; n-alkane to secondary alcohol
Experimental: as §2, §3, §4, §5

[7] = test system: Methylobacter capsulatus (Y, NRRL-B-11,201); assay: as above; type: cell-based; conditions: growth substrate Methane; n-alkane to secondary alcohol
Experimental: as §2, §3, §4, §5

SMILES	Oxidizing Activity (rate of oxidation) in cell fraction [1]	Oxidative Conversion Rates [2] [μmole/hr/mg protein]	Oxidative Conversion Rates ([3]; methane-grown washed cells, 30° C., methane to methanol, alkene to 1,2-epoxide) [μmole/hr/mg protein]	Oxidative Conversion Rates [4] [μmole/hr/mg protein]	Conversion Rate [5] [μmoles/hr/^5 mg. protein]	Conversion Rate [6] [μmoles/hr/^5 mg. protein]	Conversion Rate [7] [μmoles/hr/^5 mg. protein]	Conversion Rate to Ketone ([3]; methane-grown cells, butane to 2-butanone) [μmoles/hr/mg Protein]
C=CC [Propylene]	0 μ moles of products formed per	1.0	2.4	2.0	–	–	–	–
CCC [Propane]	–	–	–	–	2.5	1.1	0.20	–
CCCC [Butane]	–	–	–	–	1.5	1.0	0.09	1.5
C [Methane]	0 μ moles of products formed per	0.5	–	1.4	–	–	–	–
